{"source": "patent US8946420B2", "about": "“Neuromodulatory compounds” (Map Pharmaceuticals, Inc., priority 2011, dated 2015)", "key": {"[1]": {"target": "T1, Recombinant human serotonin 5-HT2A receptor (Homo sapiens, UniProt P28223)", "T1 construct": "expressed in transfected cells; host or cells: CHO-K1 cells co-expressing mitochondrial apoaequorin", "T1 sequence (P28223 whole entry)": "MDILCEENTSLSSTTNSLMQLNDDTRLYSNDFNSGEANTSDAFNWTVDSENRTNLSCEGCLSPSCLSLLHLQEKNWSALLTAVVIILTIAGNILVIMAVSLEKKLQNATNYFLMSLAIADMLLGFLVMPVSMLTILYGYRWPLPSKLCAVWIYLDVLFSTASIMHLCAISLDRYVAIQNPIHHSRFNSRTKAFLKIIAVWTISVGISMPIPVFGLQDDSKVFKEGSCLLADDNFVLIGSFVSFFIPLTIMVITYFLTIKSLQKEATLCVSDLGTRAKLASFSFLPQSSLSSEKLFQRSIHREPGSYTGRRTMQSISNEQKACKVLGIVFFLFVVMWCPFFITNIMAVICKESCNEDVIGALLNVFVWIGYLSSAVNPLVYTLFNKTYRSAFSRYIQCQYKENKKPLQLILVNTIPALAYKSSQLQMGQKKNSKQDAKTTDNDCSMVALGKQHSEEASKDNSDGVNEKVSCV", "assay": "Aequorin assay, receptor agonist/antagonist activity, CHO-K1 cells", "type": "cell-based", "method": "(§1) Compound 5A was synthesized as described above and assayed for receptor activity against a panel of dopaminergic and serotoninergic receptors. Recombinant human receptors serotonin 5-HT2A, 5-HT2B were expressed in CHO-K1 cells and activity (receptor agonist/antagonist activity) was assayed using an Aequorin assay (coexpression of mitochondrial apoaequorin) and Compound 5a at a concentration of 0.10 nM to 20,000 nM for agonist activity and 0.005 nM to 10,000 nM for antagonist activity. […]. The preserved 5-HT2B antagonism activity is hypothesized to a decrease or minimized occurrence of fibrosis (cardiac and non-cardiac) as it is thought that 5-HT2B agonism is responsible for this undesirable side-effect in other iso-ergoline compounds. […]. A decreased agonist activity towards the D3 receptor by Compound 5a is likely to produce minimal or decreased hallucinogenic effects. […]."}, "[2]": {"target": "T2, Recombinant human serotonin 5-HT2B receptor (Homo sapiens, UniProt P41595)", "T2 construct": "expressed in transfected cells; host or cells: CHO-K1 cells co-expressing mitochondrial apoaequorin", "T2 sequence (P41595 whole entry)": "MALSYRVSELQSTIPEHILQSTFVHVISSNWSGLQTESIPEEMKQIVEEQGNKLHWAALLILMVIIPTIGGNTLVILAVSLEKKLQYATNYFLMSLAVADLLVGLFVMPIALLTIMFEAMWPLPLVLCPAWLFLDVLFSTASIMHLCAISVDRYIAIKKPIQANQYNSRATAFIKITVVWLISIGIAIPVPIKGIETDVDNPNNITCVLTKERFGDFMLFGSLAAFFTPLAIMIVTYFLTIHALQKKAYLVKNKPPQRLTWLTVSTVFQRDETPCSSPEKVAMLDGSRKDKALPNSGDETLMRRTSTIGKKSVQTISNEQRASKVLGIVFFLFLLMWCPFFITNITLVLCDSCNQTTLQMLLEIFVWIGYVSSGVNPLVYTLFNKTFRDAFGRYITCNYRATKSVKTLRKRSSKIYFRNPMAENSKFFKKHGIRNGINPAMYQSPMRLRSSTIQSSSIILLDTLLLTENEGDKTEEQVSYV", "assay": "Aequorin assay, receptor agonist/antagonist activity, CHO-K1 cells", "type": "cell-based", "method": "as §1"}, "[3]": {"target": "Recombinant human dopaminergic receptor D3 (Homo sapiens, UniProt P35462)", "sequence (P35462 whole entry)": "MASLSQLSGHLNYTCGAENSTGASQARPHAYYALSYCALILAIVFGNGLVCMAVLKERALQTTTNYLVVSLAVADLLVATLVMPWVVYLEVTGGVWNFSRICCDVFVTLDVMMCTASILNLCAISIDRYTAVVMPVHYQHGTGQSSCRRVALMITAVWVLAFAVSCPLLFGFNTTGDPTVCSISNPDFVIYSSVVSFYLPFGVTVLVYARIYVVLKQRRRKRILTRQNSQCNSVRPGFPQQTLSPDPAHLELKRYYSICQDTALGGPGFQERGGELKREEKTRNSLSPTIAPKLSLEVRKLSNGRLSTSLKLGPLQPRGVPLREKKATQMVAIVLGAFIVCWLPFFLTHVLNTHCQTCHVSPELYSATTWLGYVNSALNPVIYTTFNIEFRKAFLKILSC", "assay": "GTPγS functional assay", "type": "biochemical"}, "[4]": {"target": "Recombinant human dopaminergic receptor D2L (Homo sapiens, UniProt P14416)", "sequence (P14416 whole entry)": "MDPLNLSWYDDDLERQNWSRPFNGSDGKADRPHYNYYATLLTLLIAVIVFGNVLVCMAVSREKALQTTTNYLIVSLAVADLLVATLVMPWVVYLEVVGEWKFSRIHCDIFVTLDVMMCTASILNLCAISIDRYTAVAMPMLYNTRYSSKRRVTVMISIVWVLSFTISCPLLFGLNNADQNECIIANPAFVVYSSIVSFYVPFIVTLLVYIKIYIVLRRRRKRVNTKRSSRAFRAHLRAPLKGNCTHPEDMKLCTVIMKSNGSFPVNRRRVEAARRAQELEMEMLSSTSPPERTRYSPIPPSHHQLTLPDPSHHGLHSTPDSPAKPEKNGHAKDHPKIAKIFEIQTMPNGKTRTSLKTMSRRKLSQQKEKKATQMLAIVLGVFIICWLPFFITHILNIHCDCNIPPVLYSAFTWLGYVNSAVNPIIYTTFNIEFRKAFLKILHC", "assay": "GTPγS functional assay", "type": "biochemical", "settings": "in words"}, "[5]": {"target": "T3, Recombinant human serotonin receptor 5-HT1A (Homo sapiens, UniProt P08908)", "T3 sequence (P08908 1-422)": "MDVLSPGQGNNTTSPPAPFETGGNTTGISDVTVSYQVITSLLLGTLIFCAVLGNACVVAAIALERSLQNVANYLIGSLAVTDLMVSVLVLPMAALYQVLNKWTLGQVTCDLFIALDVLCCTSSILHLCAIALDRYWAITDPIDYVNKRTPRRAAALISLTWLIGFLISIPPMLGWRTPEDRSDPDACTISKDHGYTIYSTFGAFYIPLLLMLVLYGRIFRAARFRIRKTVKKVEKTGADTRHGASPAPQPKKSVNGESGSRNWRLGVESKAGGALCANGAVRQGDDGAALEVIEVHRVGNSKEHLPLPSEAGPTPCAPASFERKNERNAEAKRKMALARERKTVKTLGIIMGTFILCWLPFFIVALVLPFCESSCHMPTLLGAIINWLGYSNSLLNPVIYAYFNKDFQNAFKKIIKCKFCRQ", "assay": "GTPγS functional assay", "type": "biochemical", "settings": "in words"}, "[6]": {"target": "Recombinant human serotonin receptor 5-HT1B (Homo sapiens, UniProt P28222)", "sequence (P28222 whole entry)": "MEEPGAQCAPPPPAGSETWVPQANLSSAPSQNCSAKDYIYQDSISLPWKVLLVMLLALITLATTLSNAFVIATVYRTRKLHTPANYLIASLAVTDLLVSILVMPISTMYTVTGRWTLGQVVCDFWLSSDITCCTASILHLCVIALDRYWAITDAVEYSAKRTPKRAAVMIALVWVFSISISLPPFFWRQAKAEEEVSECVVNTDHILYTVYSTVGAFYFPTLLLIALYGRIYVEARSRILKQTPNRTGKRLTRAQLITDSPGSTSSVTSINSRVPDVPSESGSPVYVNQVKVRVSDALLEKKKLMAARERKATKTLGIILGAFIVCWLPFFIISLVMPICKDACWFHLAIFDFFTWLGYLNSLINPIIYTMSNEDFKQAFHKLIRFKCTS", "assay": "GTPγS functional assay", "type": "biochemical", "settings": "read-out: 5-HT1B agonism, EC50"}, "[7]": {"target": "Recombinant human serotonin receptor 5-HT1D (Homo sapiens, UniProt P28221)", "sequence (P28221 whole entry)": "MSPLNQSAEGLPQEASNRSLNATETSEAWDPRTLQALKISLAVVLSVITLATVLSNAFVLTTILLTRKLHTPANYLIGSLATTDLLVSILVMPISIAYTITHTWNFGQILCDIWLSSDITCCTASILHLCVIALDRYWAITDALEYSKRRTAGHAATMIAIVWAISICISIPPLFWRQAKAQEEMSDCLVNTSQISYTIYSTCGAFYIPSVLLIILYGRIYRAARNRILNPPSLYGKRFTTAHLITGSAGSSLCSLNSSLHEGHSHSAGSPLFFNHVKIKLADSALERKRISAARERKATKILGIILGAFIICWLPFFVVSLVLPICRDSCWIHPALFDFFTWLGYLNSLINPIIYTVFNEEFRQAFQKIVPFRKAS", "assay": "GTPγS functional assay", "type": "biochemical"}}, "data": [{"smiles": "CN1C[C@@H](NC(=O)N(CC(F)(F)F)CC(F)(F)F)C=C2c3cccc4[nH]cc(c34)C[C@H]21", "note": "[Compound 5A]", "values": [{"measurement": "EC50", "setting": "[1]; agonist mode, 0.10 nM to 20,000 nM", "result": 5020, "unit": "nM"}, {"measurement": "5-HT2A receptor agonist activity", "setting": "[1]; in words, compared to lisuride", "result": "weak 5-HT2A receptor agonist activity"}, {"measurement": "IC50", "setting": "[2]; antagonist mode, 0.005 nM to 10,000 nM, read-out: 5-HT2B antagonism activity, 1050", "result": 190, "unit": "nM"}, {"measurement": "5-HT2B receptor activity", "setting": "[2]; in words", "result": "5-HT2B antagonist"}, {"measurement": "EC50", "setting": "[3]; 0.005 nM to 10,000 nM, read-out: agonist activity towards the dopaminergic D3 receptor, EC50", "result": 27, "unit": "nM"}, {"measurement": "dopaminergic receptor D3 agonism", "setting": "[3]; in words, compared to lisuride", "result": "weaker dopaminergic receptor D3agonism"}, {"measurement": "D2L agonist activity (Emax) compared to lisuride", "setting": "[4]", "result": "comparable D2L agonist activity (Emax)"}, {"measurement": "agonistic activity towards the 5-HT1A receptor", "setting": "[5]", "result": "weak/moderate agonistic activity"}, {"measurement": "EC50", "setting": "[6]", "result": 287, "unit": "nM"}, {"measurement": "selectivity for 5-HT1D to 5-HT1B", "setting": "[7]; ratio of EC50 values", "result": 20, "unit": "fold"}, {"measurement": "EC50", "setting": "[7]; read-out: 5-HT1D agonism, EC50", "result": 15, "unit": "nM"}]}]}
